The results in this text go back to ChEMBL document CHEMBL5465560, “Selectivity Literature for EUbOPEN Chemogenomic Library” (2024).

In test [1] the target is T1, Serine/threonine-protein kinase TAO3 (Homo sapiens) (UniProt Q9H2K8).
T1 sequence (whole entry): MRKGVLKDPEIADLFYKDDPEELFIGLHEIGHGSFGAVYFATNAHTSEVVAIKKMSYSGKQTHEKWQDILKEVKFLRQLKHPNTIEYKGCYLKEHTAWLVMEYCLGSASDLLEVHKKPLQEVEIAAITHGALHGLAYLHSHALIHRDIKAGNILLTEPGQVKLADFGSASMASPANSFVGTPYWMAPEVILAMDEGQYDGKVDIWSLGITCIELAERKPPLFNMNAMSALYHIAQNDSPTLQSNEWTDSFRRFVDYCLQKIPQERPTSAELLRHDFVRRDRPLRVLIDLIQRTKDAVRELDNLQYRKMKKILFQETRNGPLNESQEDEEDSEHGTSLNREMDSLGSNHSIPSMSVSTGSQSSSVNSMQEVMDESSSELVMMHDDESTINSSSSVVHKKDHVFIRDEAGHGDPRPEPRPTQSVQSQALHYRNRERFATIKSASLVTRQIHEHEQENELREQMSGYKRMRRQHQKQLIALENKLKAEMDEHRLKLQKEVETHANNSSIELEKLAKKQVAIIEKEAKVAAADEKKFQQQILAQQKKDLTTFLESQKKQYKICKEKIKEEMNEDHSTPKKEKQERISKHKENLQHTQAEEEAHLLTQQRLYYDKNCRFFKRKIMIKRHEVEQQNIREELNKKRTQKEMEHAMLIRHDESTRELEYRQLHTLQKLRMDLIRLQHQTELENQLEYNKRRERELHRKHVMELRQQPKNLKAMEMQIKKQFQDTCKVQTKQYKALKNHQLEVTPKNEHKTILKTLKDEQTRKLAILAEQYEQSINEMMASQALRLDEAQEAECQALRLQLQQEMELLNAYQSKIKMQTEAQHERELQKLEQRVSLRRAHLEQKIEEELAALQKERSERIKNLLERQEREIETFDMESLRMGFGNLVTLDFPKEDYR
The experiment in a line: Selectivity interaction (KinomeScan (DiscoverX)) EUB0000695a TAOK3. The note with it: at 100 nM.

The target in test [2] is RAF proto-oncogene serine/threonine-protein kinase (Homo sapiens) (UniProt P04049). The experiment in a line: Selectivity interaction (KinomeScan (DiscoverX)) EUB0000666a RAF1. The note with it: at 10 µM.
Test [3] addresses Ribosomal protein S6 kinase alpha-6 (Homo sapiens, UniProt Q9UK32). Briefly: Selectivity interaction (KinomeScan (DiscoverX)) EUB0000607a RPS6KA6. Particulars: at 10 µM.
The target of test [4] is T2, Dual specificity mitogen-activated protein kinase kinase 6 (Homo sapiens) (UniProt P52564).
T2 sequence (whole entry): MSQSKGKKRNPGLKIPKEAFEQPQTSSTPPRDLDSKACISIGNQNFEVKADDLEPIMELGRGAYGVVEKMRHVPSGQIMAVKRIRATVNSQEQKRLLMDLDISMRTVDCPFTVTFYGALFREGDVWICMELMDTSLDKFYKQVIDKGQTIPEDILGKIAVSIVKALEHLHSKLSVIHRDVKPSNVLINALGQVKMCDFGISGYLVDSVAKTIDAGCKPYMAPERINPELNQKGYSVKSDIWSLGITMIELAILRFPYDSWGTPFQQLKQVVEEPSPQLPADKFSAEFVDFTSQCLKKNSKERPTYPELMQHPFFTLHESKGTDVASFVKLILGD
The experiment in a line: Selectivity interaction (KinomeScan (DiscoverX)) EUB0000607a MAP2K6. Particulars: at 10 µM.

The target of test [5] is MAP kinase-activated protein kinase 2 (Homo sapiens, UniProt P49137). The experiment in a line: Selectivity interaction (SelectScreen profiling (Invitrogen)) EUB0000607a MAPKAPK2. Particulars: at 2 µM.
In test [6] the target is T3, Tyrosine-protein kinase JAK3 (Homo sapiens) (UniProt P52333).
T3 sequence (whole entry): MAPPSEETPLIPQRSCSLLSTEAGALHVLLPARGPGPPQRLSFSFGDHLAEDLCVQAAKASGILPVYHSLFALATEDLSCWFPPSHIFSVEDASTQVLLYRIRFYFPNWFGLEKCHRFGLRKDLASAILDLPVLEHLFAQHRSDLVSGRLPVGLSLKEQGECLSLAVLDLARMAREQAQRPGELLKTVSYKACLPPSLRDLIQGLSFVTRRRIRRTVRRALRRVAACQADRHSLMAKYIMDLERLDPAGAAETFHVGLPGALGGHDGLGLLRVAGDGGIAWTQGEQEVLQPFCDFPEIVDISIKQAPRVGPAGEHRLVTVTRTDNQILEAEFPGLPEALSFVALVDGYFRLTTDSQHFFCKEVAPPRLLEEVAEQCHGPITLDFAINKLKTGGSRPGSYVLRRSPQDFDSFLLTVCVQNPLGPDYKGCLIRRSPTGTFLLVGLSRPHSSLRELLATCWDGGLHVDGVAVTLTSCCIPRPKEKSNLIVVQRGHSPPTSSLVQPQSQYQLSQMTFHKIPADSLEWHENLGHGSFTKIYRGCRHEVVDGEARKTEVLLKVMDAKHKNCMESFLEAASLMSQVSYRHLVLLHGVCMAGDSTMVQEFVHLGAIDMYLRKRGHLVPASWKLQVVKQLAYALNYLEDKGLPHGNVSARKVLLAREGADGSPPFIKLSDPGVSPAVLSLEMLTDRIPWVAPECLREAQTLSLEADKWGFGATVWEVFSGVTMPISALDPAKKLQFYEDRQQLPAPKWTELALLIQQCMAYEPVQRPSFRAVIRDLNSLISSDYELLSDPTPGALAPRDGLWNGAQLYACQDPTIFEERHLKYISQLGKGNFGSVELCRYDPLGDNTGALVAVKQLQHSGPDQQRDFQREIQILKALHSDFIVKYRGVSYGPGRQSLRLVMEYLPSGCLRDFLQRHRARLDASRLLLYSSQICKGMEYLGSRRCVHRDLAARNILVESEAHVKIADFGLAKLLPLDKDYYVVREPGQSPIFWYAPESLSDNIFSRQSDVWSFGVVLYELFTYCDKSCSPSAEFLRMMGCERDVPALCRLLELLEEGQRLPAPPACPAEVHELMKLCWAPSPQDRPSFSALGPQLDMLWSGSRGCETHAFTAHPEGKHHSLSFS
Briefly: Selectivity interaction (KinomeScan (DiscoverX)) EUB0000618a JAK3. Particulars: at 10 µM.

Chain of Ribosomal protein S6 kinase alpha-6 (Q9UK32 whole entry): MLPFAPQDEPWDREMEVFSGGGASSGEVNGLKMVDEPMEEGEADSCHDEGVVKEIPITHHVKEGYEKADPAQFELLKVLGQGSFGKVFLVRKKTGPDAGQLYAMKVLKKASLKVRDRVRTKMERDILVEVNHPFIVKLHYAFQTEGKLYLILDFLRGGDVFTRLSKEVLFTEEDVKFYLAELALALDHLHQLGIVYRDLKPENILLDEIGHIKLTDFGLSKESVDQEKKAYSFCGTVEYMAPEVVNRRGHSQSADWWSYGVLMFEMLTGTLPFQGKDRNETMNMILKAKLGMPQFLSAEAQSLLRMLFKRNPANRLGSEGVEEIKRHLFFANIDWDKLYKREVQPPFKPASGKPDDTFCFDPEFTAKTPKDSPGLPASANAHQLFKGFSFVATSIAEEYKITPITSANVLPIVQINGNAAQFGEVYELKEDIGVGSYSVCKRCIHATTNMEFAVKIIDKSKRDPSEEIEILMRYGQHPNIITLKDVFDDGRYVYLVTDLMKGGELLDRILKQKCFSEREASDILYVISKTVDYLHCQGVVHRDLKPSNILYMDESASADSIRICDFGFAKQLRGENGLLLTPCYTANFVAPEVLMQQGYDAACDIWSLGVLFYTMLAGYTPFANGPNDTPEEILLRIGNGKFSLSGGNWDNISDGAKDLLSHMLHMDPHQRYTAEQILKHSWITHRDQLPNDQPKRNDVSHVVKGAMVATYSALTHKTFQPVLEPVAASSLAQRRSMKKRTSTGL
Chain of MAP kinase-activated protein kinase 2 (P49137 whole entry, looked up): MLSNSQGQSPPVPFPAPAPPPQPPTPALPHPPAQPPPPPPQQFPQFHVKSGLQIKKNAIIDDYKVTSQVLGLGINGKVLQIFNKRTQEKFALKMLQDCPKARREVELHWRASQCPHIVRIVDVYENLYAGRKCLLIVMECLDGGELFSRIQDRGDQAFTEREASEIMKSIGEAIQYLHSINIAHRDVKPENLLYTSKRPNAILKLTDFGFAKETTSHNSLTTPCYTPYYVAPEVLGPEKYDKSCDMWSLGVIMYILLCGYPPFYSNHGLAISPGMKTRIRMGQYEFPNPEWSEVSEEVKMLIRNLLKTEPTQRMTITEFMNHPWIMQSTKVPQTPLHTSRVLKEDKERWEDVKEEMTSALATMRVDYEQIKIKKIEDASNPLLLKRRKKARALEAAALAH
Chain of RAF proto-oncogene serine/threonine-protein kinase (Homo sapiens) (P04049 whole entry): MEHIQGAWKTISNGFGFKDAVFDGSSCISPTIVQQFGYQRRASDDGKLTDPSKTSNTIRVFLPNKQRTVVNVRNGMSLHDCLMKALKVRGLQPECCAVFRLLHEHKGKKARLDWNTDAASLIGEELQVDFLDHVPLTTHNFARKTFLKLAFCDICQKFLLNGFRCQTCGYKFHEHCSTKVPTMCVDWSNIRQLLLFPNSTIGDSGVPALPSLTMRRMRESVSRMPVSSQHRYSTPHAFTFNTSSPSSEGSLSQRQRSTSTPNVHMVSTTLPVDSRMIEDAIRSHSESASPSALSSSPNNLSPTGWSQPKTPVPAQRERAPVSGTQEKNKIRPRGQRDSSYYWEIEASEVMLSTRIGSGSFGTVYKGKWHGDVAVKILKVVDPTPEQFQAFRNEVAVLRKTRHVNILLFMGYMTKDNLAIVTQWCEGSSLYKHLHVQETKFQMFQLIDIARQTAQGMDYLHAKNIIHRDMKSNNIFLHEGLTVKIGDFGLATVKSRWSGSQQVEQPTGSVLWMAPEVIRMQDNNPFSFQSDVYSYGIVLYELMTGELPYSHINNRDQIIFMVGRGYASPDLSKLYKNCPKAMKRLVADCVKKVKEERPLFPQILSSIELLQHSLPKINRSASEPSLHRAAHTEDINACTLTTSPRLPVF

For the compound `Cc1cc(F)c(C(=O)Nc2cccc(-c3nncn3C(C)C)n2)cc1-n1cnc(C2CC2)c1`, the % of control in test [1] worked out at 100%.
`O=C(NOC[C@H](O)CO)c1ccc(F)c(F)c1Nc1ccc(I)cc1F` displayed a % of control in test [2] of 99%.
In the case of `CNC(=O)Nc1ccc(-c2nc(N3CC4CCC(C3)O4)c3cnn(C4CCC5(CC4)OCCO5)c3n2)cc1`, the % of control in test [3] came out at 84%; in test [4], 95%. This compound also returned a % of inhibition in test [5] of 4%.
Turning to `O[C@H]1CC[C@H](Nc2ncc3nc(Nc4c(F)cc(F)cc4F)n([C@H]4CCOC4)c3n2)CC1`, the % of control in test [6] was 90%.
